Patent US9346820B2, “HIV-1 protease inhibitors having gem-di-fluoro bicyclic P2-ligands” (priority 2013, dated 2016)

What was measured:
HIV-1APV^R5μM = assay: microbe, parasite or virus in culture; assay type: cell-based; conditions: for EC50: Human immunodeficiency virus 1, MT4, read-out: EC50 HIV-1APV^R5μM; for fold change of EC50 HIV-1APV^R5μM vs HIV-1NL4-3: number in parentheses
Method: The susceptibility of HIV-1LAI to various drugs was determined as previously described with minor modifications. Briefly, MT-2 cells (10^4/ml) were exposed to 100 50% tissue culture infectious doses (TCID50) of HIV-1LAI in the presence or absence of various concentrations of drugs in 96-well microculture plates and were incubated at 37° C. for 7 days. After 100 μl of the medium was removed from each well, 3-(4,5-dimetylthiazol-2-yl)-2,5-diphenyltetrazolium bromide (MTT) solution (10 μl, 7.5 mg/ml in phosphate-buffered saline) was added to each well in the plate, followed by incubation at 37° C. for 2 h. […] All assays were performed in duplicate or triplicate. […] To determine the sensitivity of primary HIV-1 isolates to drugs, phytohemagglutinin-stimulated peripheral blood mononuclear cells (PHA-PBMC) (10^6/ml) were exposed to 50 TCID50 of each primary HIV-1 isolate and cultured in the presence or absence of various concentrations of drugs in 10-fold serial dilutions in 96-well microculture plates. In determining the drug susceptibility of certain laboratory HIV-1 strains, MT-4 cells were employed as target cells as previously described with minor modifications. In brief, MT-4 cells (10^5/ml) were exposed to 100 TCID50 of drug-resistant HIV-1 strains in the presence or absence of various concentrations of drugs and were incubated at 37° C. On day 7 of culture, the supernatants were harvested and the amounts of p24 Gag protein were determined by using a fully automated chemiluminescent enzyme immunoassay system (Lumipulse F: Fujirebio Inc., Tokyo). […] All assays were performed in duplicate or triplicate. PHA-PBMs were derived from a single donor in each independent experiment. Thus, for obtaining the data, three different donors were recruited.

[1] = system: variants selected with DRV over 10 and 20 passages; assay: Antiviral activity against DRV-resistant variants selected over 10 and 20 passages; assay type: cell-based, HIV-1; conditions: Human immunodeficiency virus 1, read-out: EC50 against variants selected with DRV over 10 and 20 passages
HIV-1NL4-3 = assay: In vitro selection of PI-resistant HIV-1 variants in MT-4 cells with sequencing of the protease-encoding region; assay type: cell-based
Source text: MT-4 cells ([…]) were exposed to HIV-1NL4-3 (500 TCID50) and cultured in the presence of various PIs at an initial concentration of its EC50 value. Viral replication was monitored by the determination of the amount of p24 Gag produced by MT-4 cells. The culture supernatants were harvested on day 7 and used to infect fresh MT-4 cells for the next round of culture in the presence of increasing concentrations of each drug. When the virus began to propagate in the presence of the drug, the drug concentration was increased generally 2- to 3-fold. Proviral DNA samples obtained from the lysates of infected cells were subjected to nucleotide sequencing. This drug selection procedure was carried out until the drug concentration reached 5 μM (31-33). In the experiments for selecting drug-resistant variants, MT-4 cells were exploited as target cells since HIV-1 in general replicates at greater levels in MT-4 cells than in MT-2 cells.
Molecular cloning and determination of the nucleotide sequences of HIV-1 strains passaged in the presence of anti-HIV-1 agents were performed as described previously (31). In brief, high molecular-weight DNA was extracted from HIV-1-infected MT-4 cells by using the InstaGene Matrix (Bio-Rad Laboratories, Hercules, Calif.) and was subjected to molecular cloning, followed by sequence determination. The primers used for the first round of PCR with the entire Gag- and protease-encoding regions of the HIV-1 genome were LTR F1 (5′-GATGCTACATATAAGCAGCTGC-3′; SEQ ID NO: 13) and PR12 (5′-CTCGTGACAAATTTCTACTAATGC-3′; SEQ ID NO: 14). The first-round PCR mixture consisted of 1 μl of proviral DNA solution, 10 μl of Premix Taq (Ex Taq Version; Takara Bio Inc., Otsu, Japan), and 10 pmol of each of the first PCR primers in a total volume of 20 μl. The PCR conditions used were an initial 3 min at 95° C., followed by 35 cycles of 40 sec at 95° C., 20 sec at 55° C., and 2 min at 72° C., with a final 10 min of extension at 72° C. The first-round PCR products (1 μl) were used directly in the second round of PCR with primers LTR F2 (5′-GAGACTCTGGTAACTAGAGATC-3′; SEQ ID NO: 15) and Ksma2.1 (5′-CCATCCCGGGCTTTAATTTTACTGGTAC-3′; SEQ ID NO: 16) under the PCR conditions of an initial 3 min at 95° C., followed by 35 cycles of 30 sec at 95° C., 20 sec at 55° C., and 2 min at 72° C., with a final 10 min of extension at 72° C. The second-round PCR products were purified with spin columns (MicroSpin S-400 HR columns; Amersham Biosciences Corp., Piscataway, N.J.), cloned directly, and subjected to sequencing with a model 3130 automated DNA sequencer (Applied Biosystems, Foster City, Calif.).

HIV-1ERS104pre = assay: Antiviral activity of brain-side medium from the BBB assay, p24 assay in PHA-PBMs; assay type: cell-based; conditions: PHA-activated PBMCs
Method: The “brain-side” of the medium containing a compound collected in the BBB in vitro assay, was subjected to antiviral assays. Two HIV-1 isolates were employed, HIV-1LAI (Panel A) and HIV-1ERS104pre (Panel B). […] Dilution ranges were between 10-fold and 10,000-fold, and the percentage of viral inhibition was used as an endpoint. […] Assays were conducted in duplicate and error bars show standard deviations.
The assay was carried out using 10, 100, 1000 and 10000 times-diluted brain-side stocks of compounds.

[2] = system: multi-drug-resistant clinical HIV-1 variants; assay: p24 assay in PHA-PBMs, the six multi-drug-resistant clinical variants taken together; assay type: cell-based; conditions: Human immunodeficiency virus 1, read-out: EC50 values against clinical multi-drug-resistant variants
Method: The susceptibility of HIV-1LAI to various drugs was determined as previously described with minor modifications. Briefly, MT-2 cells (10^4/ml) were exposed to 100 50% tissue culture infectious doses (TCID50) of HIV-1LAI in the presence or absence of various concentrations of drugs in 96-well microculture plates and were incubated at 37° C. for 7 days. After 100 μl of the medium was removed from each well, 3-(4,5-dimetylthiazol-2-yl)-2,5-diphenyltetrazolium bromide (MTT) solution (10 μl, 7.5 mg/ml in phosphate-buffered saline) was added to each well in the plate, followed by incubation at 37° C. for 2 h. […] All assays were performed in duplicate or triplicate. […] To determine the sensitivity of primary HIV-1 isolates to drugs, phytohemagglutinin-stimulated peripheral blood mononuclear cells (PHA-PBMC) (10^6/ml) were exposed to 50 TCID50 of each primary HIV-1 isolate and cultured in the presence or absence of various concentrations of drugs in 10-fold serial dilutions in 96-well microculture plates. In determining the drug susceptibility of certain laboratory HIV-1 strains, MT-4 cells were employed as target cells as previously described with minor modifications. […] On day 7 of culture, the supernatants were harvested and the amounts of p24 Gag protein were determined by using a fully automated chemiluminescent enzyme immunoassay system (Lumipulse F: Fujirebio Inc., Tokyo). […]

Compound	EC50 (HIV-1APV^R5μM) [nM]	EC50 [1] [nM]	concentration in the presence of which HIV-1NL4-3 had acquired an ability to replicate (HIV-1NL4-3; 25 passages, initial concentration 0.003 μM, MT-4 cells) [µM]	fold-increased concentration tolerated by selected virus (HIV-1NL4-3; 25 passages, relative to initial concentration 0.003 μM) [fold]	fold change of EC50 HIV-1APV^R5μM vs HIV-1NL4-3 (HIV-1APV^R5μM) [fold]	antiviral profile of brain-side preparations (FIG. 5B) (HIV-1ERS104pre)	EC50 [2] [nM]	amino acid substitutions in the protease-encoding region of selected HIV-1NL4-3 (HIV-1NL4-3; by passage 15)	concentration in the presence of which HIV-1NL4-3 attained an ability to replicate (HIV-1NL4-3; by passage 15, starting at 0.003 μM, MT-4 cells) [µM]
CC(C)CN(C[C@@H](O)[C@H](Cc1ccccc1)NC(=O)O[C@H]1CO[C@H]2OCC[C@H]21)S(=O)(=O)c1ccc(N)cc1 [DRV, darunavir]	510	–	–	–	–	–	–	–	–
COc1ccc(S(=O)(=O)N(CC(C)C)C[C@@H](O)[C@H](Cc2ccccc2)NC(=O)OC2CO[C@H]3OCC(F)(F)[C@@H]23)cc1 (stereo partly drawn) [GRL-04810]	430	30 to 34	0.080	26	860	virtually the same antiviral profiles	2 to 21	–	–
COC(=O)N[C@H](C(=O)N[C@@H](Cc1ccccc1)[C@@H](O)CN(Cc1ccc(-c2ccccn2)cc1)NC(=O)[C@@H](NC(=O)OC)C(C)(C)C)C(C)(C)C [ATV, Atazanavir]	660 ± 20	–	–	–	–	–	–	–	–
CC(C)CN(C[C@@H](O)[C@H](Cc1ccccc1)NC(=O)O[C@H]1CO[C@H]2OCC(F)(F)[C@H]21)S(=O)(=O)c1ccc(N)cc1 [GRL-05010]	560	26 to 43	–	–	187	virtually the same antiviral profiles	2 to 21	M46I and I50V by passage 15 in all 24 clones examined, while N38K was detected in 8 of 24 clones and M36I in 3 clones	0.037
CC(C)(C)NC(=O)[C@@H]1C[C@@H]2CCCC[C@@H]2CN1C[C@@H](O)[C@H](Cc1ccccc1)NC(=O)[C@H](CC(N)=O)NC(=O)c1ccc2ccccc2n1 [SQV, Saquinavir]	90	–	–	–	2	–	–	–	–
